Experimental data published in US20230278984A1 (Global Blood Therapeutics, Inc., priority 2020, published 2023).

How the values were obtained:
[1] = test system: mouse model of beta-thalassemia; settings: cited from earlier work
[2] = target: T1, Human pyruvate kinase R (PKR) (Homo sapiens, UniProt P30613); assay: Biochemical assay for activation of pyruvate kinase R (Kinase-Glo luminescence measurement of ATP generation); settings: for AC50: PKR biochemical assay, 0.1 nM PKR, 0.3 mM ADP, 2 mM FBP, 0.1 mM PEP; for Emax: maximal activation level relative to the activation level achieved by the literature compound AG-348 @ 10 μM
T1 construct: Human pyruvate kinase R (PKR), residues 14-574; 6x-His (N, cleaved yes); 8x-Arg (N, cleaved yes); SUMO (N, cleaved yes); host or cells: E. coli
Summary of the method: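 Recombinant human PKR (residues 14-574), E. coli-expressed with His-Arg-SUMO tag removed, purified by Ni-NTA, anion exchange and size exclusion. Activation measured as ATP generation via Kinase-Glo luminescence.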

T1 sequence (P30613 14-574): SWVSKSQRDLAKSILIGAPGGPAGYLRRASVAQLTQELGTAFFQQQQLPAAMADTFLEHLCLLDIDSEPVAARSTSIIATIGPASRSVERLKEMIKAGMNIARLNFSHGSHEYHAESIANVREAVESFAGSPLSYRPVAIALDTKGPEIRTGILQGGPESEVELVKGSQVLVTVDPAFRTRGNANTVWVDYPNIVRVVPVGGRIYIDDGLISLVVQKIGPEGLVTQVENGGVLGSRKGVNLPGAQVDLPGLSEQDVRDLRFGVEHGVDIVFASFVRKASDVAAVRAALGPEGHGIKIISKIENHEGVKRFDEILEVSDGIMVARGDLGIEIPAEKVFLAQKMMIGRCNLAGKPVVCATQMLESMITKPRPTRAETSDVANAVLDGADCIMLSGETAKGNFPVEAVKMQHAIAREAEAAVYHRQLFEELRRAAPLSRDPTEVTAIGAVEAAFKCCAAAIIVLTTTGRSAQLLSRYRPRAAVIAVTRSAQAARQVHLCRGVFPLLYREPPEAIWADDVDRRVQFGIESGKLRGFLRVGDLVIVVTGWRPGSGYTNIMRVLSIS

SMILES	PK activity, ATP levels and RBC parameters [1]	AC50 [2] [nM]	Emax [2] [%]
O=C(c1ccc(NS(=O)(=O)c2cccc3cccnc23)cc1)N1CCN(CC2CC2)CC1 [AG-348, Mitapivat]	increased PK activity and ATP levels, as well as improved RBC parameters	–	–
Cc1nc(CNC(=O)NCc2ncnn2-c2cnc3cc(F)ccc3c2)n(-c2ccc(Cl)c(F)c2)n1 [Compound 135, 1-{[1-(4-chloro-3-fluorophenyl)-3-methyl-1H-1,2,4-triazol-5-yl]methyl}-3-{[1-(7-fluoroquinolin-3-yl)-1H-1,2,4-triazol-5-yl]methyl}urea]	–	86	117
Cc1nc(CNC(=O)NCc2ncnn2-c2cnc3c(F)cccc3c2)n(-c2ccc(Cl)c(F)c2)n1 [Compound 136, 3-{[1-(4-chloro-3-fluorophenyl)-3-methyl-1H-1,2,4-triazol-5-yl]methyl}-1-{[1-(8-fluoroquinolin-3-yl)-1H-1,2,4-triazol-5-yl]methyl}urea]	–	47	94
Cc1cncc(-n2ncnc2CNC(=O)NCc2nc(C)nn2-c2ccc(Cl)c(F)c2)c1 [Compound 137, 1-{[1-(4-chloro-3-fluorophenyl)-3-methyl-1H-1,2,4-triazol-5-yl]methyl}-3-{[1-(5-methylpyridin-3-yl)-1H-1,2,4-triazol-5-yl]methyl}urea]	–	180	99
Cc1nc(CNC(=O)NCc2nc(C)nn2-c2cnc3ccccc3c2)n(-c2ccc(Cl)c(F)c2)n1 [Compound 138, 1-{[1-(4-chloro-3-fluorophenyl)-3-methyl-1H-1,2,4-triazol-5-yl]methyl}-3-{[3-methyl-1-(quinolin-3-yl)-1H-1,2,4-triazol-5-yl]methyl}urea]	–	44	129
Cc1nc(CNC(=O)NCc2ncnn2-c2cnc3ccc(F)cc3c2)n(-c2ccc(Cl)c(F)c2)n1 [Compound 139, 1-{[1-(4-chloro-3-fluorophenyl)-3-methyl-1H-1,2,4-triazol-5-yl]methyl}-3-{[1-(6-fluoroquinolin-3-yl)-1H-1,2,4-triazol-5-yl]methyl}urea]	–	61	96
Cc1nc(CNC(=O)NCc2ncnn2-c2cnc3cccc(F)c3c2)n(-c2ccc(Cl)c(F)c2)n1 [Compound 140, 1-{[1-(4-chloro-3-fluorophenyl)-3-methyl-1H-1,2,4-triazol-5-yl]methyl}-3-{[1-(5-fluoroquinolin-3-yl)-1H-1,2,4-triazol-5-yl]methyl}urea]	–	25	72
CCc1ccc(-n2ncnc2CNC(=O)NCc2nc(C)nn2-c2ccc(Cl)c(F)c2)cn1 [Compound 141, 1-{[1-(4-chloro-3-fluorophenyl)-3-methyl-1H-1,2,4-triazol-5-yl]methyl}-3-{[1-(6-ethylpyridin-3-yl)-1H-1,2,4-triazol-5-yl]methyl}urea]	–	140	71
CCN(Cc1ncnn1-c1cnc2ccccc2c1)C(=O)NCc1nc(C)nn1-c1ccc(Cl)c(F)c1 [Compound 142, 1-{[1-(4-chloro-3-fluorophenyl)-3-methyl-1H-1,2,4-triazol-5-yl]methyl}-3-ethyl-3-{[1-(quinolin-3-yl)-1H-1,2,4-triazol-5-yl]methyl}urea]	–	250	127
CCN(Cc1ncnn1-c1ccc(Cl)c(F)c1)C(=O)NCc1nc(C)nn1-c1cnc2ccccc2c1 [Compound 143, 1-{[1-(4-chloro-3-fluorophenyl)-1H-1,2,4-triazol-5-yl]methyl}-1-ethyl-3-{[3-methyl-1-(quinolin-3-yl)-1H-1,2,4-triazol-5-yl]methyl}urea]	–	140	112
Cc1nc(CNC(=O)NCc2ncnn2-c2ccc(Cl)c(F)c2)n(-c2cnc3ccccc3c2)n1 [Compound 144, 1-{[1-(4-chloro-3-fluorophenyl)-1H-1,2,4-triazol-5-yl]methyl}-3-{[3-methyl-1-(quinolin-3-yl)-1H-1,2,4-triazol-5-yl]methyl}urea]	–	27	94
O=C(NCc1ncnn1-c1ccc(Cl)c(F)c1)NCc1ncnn1-c1cnc2cc(F)ccc2c1 [Compound 145, 1-{[1-(4-chloro-3-fluorophenyl)-1H-1,2,4-triazol-5-yl]methyl}-3-{[1-(7-fluoroquinolin-3-yl)-1H-1,2,4-triazol-5-yl]methyl}urea]	–	51	76
